Laboratory results from PubChem BioAssay AID1259407 (Chemical Carcinogenesis Research Information System (CCRIS), 2018).
The source made the active and inactive calls. The rule behind the calls is not given here.

System: CCRIS mutagenicity, Ames/micronucleus/aberration tests
Assay: CCRIS mutagenicity studies
[1] = Test System: AMES SALMONELLA TYPHIMURIUM, Strain/Indicator: TA98, Metabolic Activation: NONE, Method: PREINCUBATION
[2] = Test System: AMES SALMONELLA TYPHIMURIUM, Strain/Indicator: TA100, Metabolic Activation: NONE, Method: PREINCUBATION
[3] = Test System: AMES SALMONELLA TYPHIMURIUM, Strain/Indicator: TA104, Metabolic Activation: NONE, Method: PREINCUBATION

C[N+](C)(C)CCO
mutagenic call [1]: inactive; negative
mutagenic call (Test System: AMES SALMONELLA TYPHIMURIUM, Strain/Indicator: TA98, Metabolic Activation: RAT, LIVER, S-9, PHENOBARBITAL AND BETA-NAPHTHOFLAVONE, Method: PREINCUBATION): inactive; negative
mutagenic call [2]: inactive; negative
mutagenic call (Test System: AMES SALMONELLA TYPHIMURIUM, Strain/Indicator: TA100, Metabolic Activation: RAT, LIVER, S-9, PHENOBARBITAL AND BETA-NAPHTHOFLAVONE, Method: PREINCUBATION): inactive; negative
mutagenic call (Test System: AMES SALMONELLA TYPHIMURIUM, Strain/Indicator: TA102, Metabolic Activation: NONE, Method: PREINCUBATION): inactive; negative
mutagenic call (Test System: AMES SALMONELLA TYPHIMURIUM, Strain/Indicator: TA102, Metabolic Activation: RAT, LIVER, S-9, PHENOBARBITAL AND BETA-NAPHTHOFLAVONE, Method: PREINCUBATION): inactive; negative
mutagenic call [3]: inactive; negative
mutagenic call (Test System: AMES SALMONELLA TYPHIMURIUM, Strain/Indicator: TA104, Metabolic Activation: RAT, LIVER, S-9, PHENOBARBITAL AND BETA-NAPHTHOFLAVONE, Method: PREINCUBATION): inactive; negative
mutagenic call (Test System: AMES SALMONELLA TYPHIMURIUM, Strain/Indicator: TA1535, Metabolic Activation: NONE, Method: PREINCUBATION): inactive; negative
mutagenic call (Test System: AMES SALMONELLA TYPHIMURIUM, Strain/Indicator: TA1535, Metabolic Activation: RAT, LIVER, S-9, PHENOBARBITAL AND BETA-NAPHTHOFLAVONE, Method: PREINCUBATION): inactive; negative
mutagenic call (Test System: AMES SALMONELLA TYPHIMURIUM, Strain/Indicator: TA1537, Metabolic Activation: NONE, Method: PREINCUBATION): inactive; negative
mutagenic call (Test System: AMES SALMONELLA TYPHIMURIUM, Strain/Indicator: TA1537, Metabolic Activation: RAT, LIVER, S-9, PHENOBARBITAL AND BETA-NAPHTHOFLAVONE, Method: PREINCUBATION): inactive; negative
mutagenic call (Test System: E. COLI, Strain/Indicator: WP2UVRA/PKM101, Metabolic Activation: NONE, Method: PREINCUBATION): inactive; negative
mutagenic call (Test System: E. COLI, Strain/Indicator: WP2UVRA/PKM101, Metabolic Activation: RAT, LIVER, S-9, PHENOBARBITAL AND BETA-NAPHTHOFLAVONE, Method: PREINCUBATION): inactive; negative
mutagenic call (Test System: E. COLI, Strain/Indicator: WP2UVRA, Metabolic Activation: NONE, Method: PREINCUBATION): inactive; negative
mutagenic call (Test System: E. COLI, Strain/Indicator: WP2UVRA, Metabolic Activation: RAT, LIVER, S-9, PHENOBARBITAL AND BETA-NAPHTHOFLAVONE, Method: PREINCUBATION): inactive; negative

COC(=O)CCCN(N=O)C(N)=O
mutagenic call (Test System: E. COLI B, Strain/Indicator: H/R30R, Metabolic Activation: NONE): active; positive
mutagenic call (Test System: E. COLI B, Strain/Indicator: HS30R, Metabolic Activation: NONE): active; positive

Nc1cc2nc3ccccc3nc2cc1N
mutagenic call (Test System: AMES SALMONELLA TYPHIMURIUM, Strain/Indicator: TA98(1,8-DNP6), Metabolic Activation: NONE, Method: PREINCUBATION): inactive; negative
mutagenic call (Test System: AMES SALMONELLA TYPHIMURIUM, Strain/Indicator: TA98(1,8-DNP6), Metabolic Activation: S-9, Method: PREINCUBATION): active; positive
mutagenic call [1]: inactive; negative
mutagenic call (Test System: AMES SALMONELLA TYPHIMURIUM, Strain/Indicator: TA98, Metabolic Activation: NONE, Method: STANDARD PLATE): active; positive
mutagenic call (Test System: AMES SALMONELLA TYPHIMURIUM, Strain/Indicator: TA98, Metabolic Activation: RAT, LIVER, S-9, AROCLOR 1254, Method: STANDARD PLATE): active; positive
mutagenic call (Test System: AMES SALMONELLA TYPHIMURIUM, Strain/Indicator: TA98, Metabolic Activation: S-9, Method: PREINCUBATION): active; positive
mutagenic call (Test System: AMES SALMONELLA TYPHIMURIUM, Strain/Indicator: TA98, Metabolic Activation: S-9, Method: SUSPENSION/PLATE): active; positive
mutagenic call (Test System: AMES SALMONELLA TYPHIMURIUM, Strain/Indicator: TA100(OAT-), Metabolic Activation: NONE, Method: PREINCUBATION): inactive; negative
mutagenic call (Test System: AMES SALMONELLA TYPHIMURIUM, Strain/Indicator: TA100(OAT-), Metabolic Activation: S-9, Method: PREINCUBATION): inactive; negative
mutagenic call [2]: inactive; negative
mutagenic call (Test System: AMES SALMONELLA TYPHIMURIUM, Strain/Indicator: TA100, Metabolic Activation: NONE, Method: STANDARD PLATE): inactive; negative
mutagenic call (Test System: AMES SALMONELLA TYPHIMURIUM, Strain/Indicator: TA100, Metabolic Activation: RAT, LIVER, S-9, AROCLOR 1254, Method: STANDARD PLATE): active; positive
mutagenic call (Test System: AMES SALMONELLA TYPHIMURIUM, Strain/Indicator: TA100, Metabolic Activation: S-9, Method: PREINCUBATION): active; positive
mutagenic call (Test System: AMES SALMONELLA TYPHIMURIUM, Strain/Indicator: TA1029, Metabolic Activation: S-9, Method: PREINCUBATION): active; positive
mutagenic call (Test System: AMES SALMONELLA TYPHIMURIUM, Strain/Indicator: TA1537, Metabolic Activation: NONE, Method: STANDARD PLATE): active; positive
mutagenic call (Test System: AMES SALMONELLA TYPHIMURIUM, Strain/Indicator: TA1537, Metabolic Activation: RAT, LIVER, S-9, AROCLOR 1254, Method: STANDARD PLATE): active; positive
mutagenic call (Test System: AMES SALMONELLA TYPHIMURIUM, Strain/Indicator: YG1024, Metabolic Activation: PLANT CELL-FREE EXTRACT, Method: PREINCUBATION): active; positive
mutagenic call (Test System: AMES SALMONELLA TYPHIMURIUM, Strain/Indicator: YG1024, Metabolic Activation: S-9, Method: PREINCUBATION): active; positive
mutagenic call (Test System: AMES SALMONELLA TYPHIMURIUM, Strain/Indicator: YG1029, Metabolic Activation: PLANT CELL-FREE EXTRACT, Method: PREINCUBATION): active; positive
mutagenic call (Test System: AMES SALMONELLA TYPHIMURIUM, Strain/Indicator: YG1029, Metabolic Activation: S-9, Method: PREINCUBATION): active; positive

O=C(Cl)c1ccc(Cl)cc1Cl
mutagenic call [1]: inactive; negative
mutagenic call (Test System: AMES SALMONELLA TYPHIMURIUM, Strain/Indicator: TA98, Metabolic Activation: RAT LIVER S-9, PCB, Method: PREINCUBATION): active; positive
mutagenic call [2]: inactive; negative
mutagenic call (Test System: AMES SALMONELLA TYPHIMURIUM, Strain/Indicator: TA100, Metabolic Activation: RAT LIVER S-9, PCB, Method: PREINCUBATION): active; positive
mutagenic call [3]: inactive; negative
mutagenic call (Test System: AMES SALMONELLA TYPHIMURIUM, Strain/Indicator: TA104, Metabolic Activation: RAT LIVER S-9, PCB, Method: PREINCUBATION): active; positive
mutagenic call (Test System: Ames Salmonella typhimurium, Strain/Indicator: TA98, Metabolic Activation: None, Method: Preincubation): inactive; negative
mutagenic call (Test System: Ames Salmonella typhimurium, Strain/Indicator: TA98, Metabolic Activation: Rat, Liver, S9, Sodium phenobarbital and 5,6-benzoflavone, Method: Preincubation): inactive; negative
mutagenic call (Test System: Ames Salmonella typhimurium, Strain/Indicator: TA100, Metabolic Activation: None, Method: Preincubation): inactive; negative
mutagenic call (Test System: Ames Salmonella typhimurium, Strain/Indicator: TA100, Metabolic Activation: Rat, Liver, S9, Sodium phenobarbital and 5,6-benzoflavone, Method: Preincubation): inactive; negative
mutagenic call (Test System: Ames Salmonella typhimurium, Strain/Indicator: TA1535, Metabolic Activation: None, Method: Preincubation): inactive; negative
mutagenic call (Test System: Ames Salmonella typhimurium, Strain/Indicator: TA1535, Metabolic Activation: Rat, Liver, S9, Sodium phenobarbital and 5,6-benzoflavone, Method: Preincubation): inactive; negative
mutagenic call (Test System: Ames Salmonella typhimurium, Strain/Indicator: TA1537, Metabolic Activation: None, Method: Preincubation): inactive; negative
mutagenic call (Test System: Ames Salmonella typhimurium, Strain/Indicator: TA1537, Metabolic Activation: Rat, Liver, S9, Sodium phenobarbital and 5,6-benzoflavone, Method: Preincubation): inactive; negative
mutagenic call (Test System: E. coli, Strain/Indicator: WP2uvrA/pKM101, Metabolic Activation: None, Method: Preincubation): inactive; negative
mutagenic call (Test System: E. coli, Strain/Indicator: WP2uvrA/pKM101, Metabolic Activation: Rat, Liver, S9, Sodium phenobarbital and 5,6-benzoflavone, Method: Preincubation): inactive; negative
mutagenic call (Test System: E.COLI, Strain/Indicator: WP2 UVRA, Metabolic Activation: NONE, Method: PREINCUBATION): inactive; negative
mutagenic call (Test System: E.COLI, Strain/Indicator: WP2 UVRA, Metabolic Activation: RAT LIVER S-9, PCB, Method: PREINCUBATION): inactive; negative
